Consider two compounds from US20080241834A1, “Method for improving neoadjuvant chemotherapy” (priority 2006, published 2008).

Assay [1] concerns breast cancer in BRCA1 mutation carriers. The assay can be described thus: Response to neoadjuvant chemotherapy in breast cancer patients carrying a BRCA1 mutation. The assay is classed as in vivo, human. As to the method:
(§1) 3479 unselected incident cases of invasive breast cancer were identified at 18 different hospitals in Poland during the study period. The medical records and pathology reports were reviewed locally at the study centre in Szczecin. Information was recorded on age at diagnosis, stage, grade and lymph-node status, estrogen-receptor status, multi-centricity and bilaterality. Pathology review of tumor blocks and/or paraffin-embedded slides were requested from the corresponding pathology centres. One or more specimens were obtained from 3136 of the […] patients. A central pathology review was conducted in Szczecin by two pathologists associated with the study. Pathologists were blinded to mutation status. […] Pre-treatment tumor size was determined in all patients by a combination of clinical examination and mammography (for some patients ultrasound examinations were also performed). Post-treatment size was determined by pathology report. Lymph node status was evaluated prior to and after treatment. Pre-treatment lymph node status was evaluated with a combination of clinical exam, ultrasound and fine needle aspiration. After treatment all patients underwent axillary dissection and node status was evaluated by pathology report. […] The statistical significance of group differences was assessed using Fisher's Exact Test. […]

Assay [2] concerns breast cancer in non-carriers. In words: Response to neoadjuvant chemotherapy in matched non-carrier breast cancer patients. The assay is classed as in vivo, human. As to the method:
as §1

The subject of another assay is tumor cell lines. The conditions noted are these: BRCA1 protein reconstituted into the tumor cell lines; cited from earlier work.
The next assay has as its system breast cancer. The conditions noted are these: cited from earlier work.
In the next assay the test system is MCF7 cells. The conditions noted are these: BRCA1 protein downregulation, premature inactivation of the spindle checkpoint; cited from earlier work.
The next assay relates to lung cancer. Particulars: cited from earlier work.
A further assay deals with ovarian cancer. Particulars: cited from earlier work.

The structures appear in SMILES notation.

Turning to `CC(=O)O[C@@]12CO[C@@H]1C[C@H](O)[C@@]1(C)C(=O)[C@H](O)C3=C(C)[C@@H](OC(=O)[C@H](O)[C@@H](NC(=O)OC(C)(C)C)c4ccccc4)C[C@@](O)([C@@H](OC(=O)c4ccccc4)[C@H]21)C3(C)C` [docetaxel], the “patients with complete or partial response, of patients treated” value is given as 6 of the 15 in assay [1] and 12 of 12 in assay [2] (non-carriers). The patients who responded in assay [2] (non-carriers with ER-negative tumors) is on record as 4.
Turning to `CC(=O)O[C@H]1C(=O)[C@@]2(C)[C@H]([C@H](OC(=O)c3ccccc3)[C@]3(O)C[C@H](OC(=O)[C@H](O)[C@@H](NC(=O)c4ccccc4)c4ccccc4)C(C)=C1C3(C)C)[C@]1(OC(C)=O)CO[C@@H]1C[C@@H]2O` [paclitaxel], the results for the sensitivity to paclitaxel entry in the assay on tumor cell lines and in the assay on MCF7 cells were “increased” and “insensitive”, respectively. The effectivity in the assay on breast cancer is listed as ~50%; in the assay on lung cancer, ~20%; in the assay with ovarian cancer, “around 30%”.
